≈ marks a conversion by molar mass, not a printed value. Calls of active or inactive are those of the source. The calls are words filed in the database; no cut-off is given here.
Columns and labels:
[1] = tested on: Staphylococcus aureus; assay: Antimicrobial activity against Staphylococcus aureus assessed as zone of inhibition >8 mm by twofold serial dilution method; type: functional
[2] = tested on: Micrococcus luteus; assay: Antimicrobial activity against Micrococcus luteus assessed as zone of inhibition by agar diffusion method; type: functional
[3] = tested on: Klebsiella pneumoniae; assay: Antimicrobial activity against Klebsiella pneumoniae assessed as zone of inhibition by agar diffusion method; type: functional
[4] = tested on: Escherichia coli; assay: Antimicrobial activity against Escherichia coli assessed as zone of inhibition >8 mm by twofold serial dilution method; type: functional
[5] = tested on: Micrococcus luteus; assay: Antimicrobial activity against Micrococcus luteus assessed as zone of inhibition >8 mm by twofold serial dilution method; type: functional
[6] = tested on: Staphylococcus aureus; assay: Antimicrobial activity against Staphylococcus aureus assessed as zone of inhibition by agar diffusion method; type: functional
[7] = tested on: Klebsiella pneumoniae; assay: Antimicrobial activity against Klebsiella pneumoniae assessed as zone of inhibition >8 mm by twofold serial dilution method; type: functional
[8] = tested on: Rattus norvegicus; assay: Antiinflammatory activity in albino rat assessed as inhibition of carrageenan-induced paw edema measured as paw thickness at 0.03 mmol/kg, po administered 1 hr prior to carrageenan challenge measured after 6 hrs (reference value: 1.081 +/- 0.257 mm)
[9] = tested on: Rattus norvegicus; assay: Ulcerogenic effect in po dosed rat assessed as lesions of bleedings; type: toxicity, organism-based; details: in vivo
[10] = tested on: Escherichia coli; assay: Antimicrobial activity against Escherichia coli assessed as zone of inhibition by agar diffusion method; type: functional
[11] = tested on: Rattus norvegicus; assay: Antiinflammatory activity in albino rat assessed as inhibition of carrageenan-induced paw edema measured as paw thickness at 0.03 mmol/kg, po administered 1 hr prior to carrageenan challenge measured after 4 hrs (reference value: 1.260 +/- 0.172 mm)
[12] = tested on: Rattus norvegicus; assay: Antiinflammatory activity in albino rat assessed as inhibition of carrageenan-induced paw edema at […], po administered 1 hr prior to carrageenan challenge measured after 4 hrs relative to control; type: functional
[13] = tested on: Mus musculus; assay: Analgesic activity in mouse assessed as inhibition of acetic acid-induced writhing at 0.03 mM/kg
[14] = tested on: Rattus norvegicus; assay: Antiinflammatory activity in albino rat assessed as inhibition of carrageenan-induced paw edema at […], po administered 1 hr prior to carrageenan challenge measured after 6 hrs relative to control; type: functional
[15] = tested on: Mus musculus; assay: Analgesic activity in mouse assessed as inhibition of acetic acid-induced writhing measured as potency at 0.03 mM/kg; design: scale not given: the % may be the effect or the level left
[16] = tested on: Micrococcus luteus; assay: Antimicrobial activity against Micrococcus luteus assessed as growth inhibition by agar diffusion method; type: functional
[17] = tested on: Staphylococcus aureus; assay: Antimicrobial activity against Staphylococcus aureus assessed as growth inhibition by agar diffusion method; type: functional

SMILES | MIC [1] | diameter of the inhibition zone (DIZ) [2] | diameter of the inhibition zone (DIZ) [3] | MIC [4] | MIC [5] | diameter of the inhibition zone (DIZ) [6] | MIC [7] | Activity [8] | Activity [9] | diameter of the inhibition zone (DIZ) [10] | Activity [11] | inhibition in vivo [12] | inhibition (INH) [13] | inhibition in vivo [14] | Activity [15] | growth inhibition (GI) [16] | growth inhibition (GI) [17]
O=C(O)c1cn(C2CC2)c2cc(N3CCNCC3)c(F)cc2c1=O [CIPROFLOXACIN] | 9.43 µM (≈ 3.12 µg/mL) | 25 mm | 17 mm | 4.72 µM (≈ 1.56 µg/mL) | 0.59 µM (≈ 0.195 µg/mL) | 24 mm | 0.59 µM (≈ 0.195 µg/mL) |  |  |  |  |  |  |  |  |  | 
CC1=NN(C(=O)c2cc3ccccc3oc2=O)C(=O)C1CNc1ccccn1 (configuration not stated) | 66.4 µM (≈ 25 µg/mL) | 12 mm | 15 mm | 133 µM (≈ 50 µg/mL) | 66.4 µM (≈ 25 µg/mL) | 15 mm | 66.4 µM (≈ 25 µg/mL) | 1.961 mm | Toxic | 15 mm | 2.389 mm | 31.1% | 29.87% | 50.3% | 43.4% |  | 
CC1=NN(C(=O)c2cc3ccccc3oc2=O)C(=O)C1CNc1cccc(S(N)(=O)=O)c1 (configuration not stated) | 55 µM (≈ 25 µg/mL) | inactive | 12 mm | 55 µM (≈ 25 µg/mL) |  | 18 mm | 55 µM (≈ 25 µg/mL) | 0.793 mm | Non-toxic | 12 mm | 1.116 mm | 67.8% | 33.77% | 79.9% | 49.06% | inactive | 
CC1=NN(C(=O)c2cc3ccccc3oc2=O)C(=O)C1CNc1ccc(O)c(C(=O)O)c1 (configuration not stated) | 115 µM (≈ 50 µg/mL) | 12 mm | 12 mm | 57.4 µM (≈ 25 µg/mL) | 115 µM (≈ 50 µg/mL) | 12 mm | 115 µM (≈ 50 µg/mL) | 1.939 mm | Non-toxic | 12 mm | 2.396 mm | 30.9% | 35.06% | 50.9% | 50.94% |  | 
CC1=NN(C(=O)c2cc3ccccc3oc2=O)C(=O)C1CNc1c(O)cc(S(=O)(=O)O)c2ccccc12 (configuration not stated) | 48 µM (≈ 25 µg/mL) | inactive | 18 mm | 24 µM (≈ 12.5 µg/mL) |  | 15 mm | 48 µM (≈ 25 µg/mL) | 2.16 mm |  | 15 mm | 2.715 mm | 21.6% | 54.55% | 45.3% | 79.25% | inactive | 
CC1=NN(C(=O)c2cc3ccccc3oc2=O)C(=O)C1CNc1ccc(S(N)(=O)=O)cc1 (configuration not stated) | 55 µM (≈ 25 µg/mL) | inactive | 15 mm | 27.5 µM (≈ 12.5 µg/mL) |  | 15 mm | 55 µM (≈ 25 µg/mL) | 0.873 mm | Non-toxic | 12 mm | 1.079 mm | 68.9% | 64.93% | 77.9% | 94.33% | inactive | 
CC1=NN(C(=O)c2cc3ccccc3oc2=O)C(=O)C1CNc1ccc(Cl)cc1 (configuration not stated) |  | 18 mm | 12 mm | 30.5 µM (≈ 12.5 µg/mL) | 61 µM (≈ 25 µg/mL) | inactive | 61 µM (≈ 25 µg/mL) | 1.125 mm | Toxic | 12 mm | 1.956 mm | 43.5% | 71.43% | 71.5% | 103.78% |  | inactive
CC1=NN(C(=O)c2cc3ccccc3oc2=O)C(=O)C1CNc1ccc(C(=O)O)cc1 (configuration not stated) | 59.6 µM (≈ 25 µg/mL) | 18 mm | 14 mm | 119 µM (≈ 50 µg/mL) | 119 µM (≈ 50 µg/mL) | 12 mm | 119 µM (≈ 50 µg/mL) | 1.081 mm | Non-toxic | 12 mm | 1.26 mm | 63.6% | 61.04% | 72.6% | 88.68% |  | 
COc1ccc2c(c1)c(CC(=O)O)c(C)n2C(=O)c1ccc(Cl)cc1 [INDOMETHACIN] |  |  |  |  |  |  |  | 0.985 mm |  |  | 1.144 mm | 67.8% | 68.83% | 76% | 100% |  | 
CC1=NN(C(=O)c2cc3ccccc3oc2=O)C(=O)C1CNc1ccc([N+](=O)[O-])cc1 (configuration not stated) | 119 µM (≈ 50 µg/mL) | 15 mm | 12 mm | 119 µM (≈ 50 µg/mL) | 119 µM (≈ 50 µg/mL) | 12 mm | 119 µM (≈ 50 µg/mL) | 1.107 mm | Non-toxic | 15 mm | 1.32 mm | 61.9% | 59.74% | 72% | 86.79% |  | 
COc1ccc(NCC2C(=O)N(C(=O)c3cc4ccccc4oc3=O)N=C2C)cc1 (configuration not stated) | 61.7 µM (≈ 25 µg/mL) | inactive | 18 mm | 30.8 µM (≈ 12.5 µg/mL) |  | 15 mm | 61.7 µM (≈ 25 µg/mL) | 1.821 mm | Toxic | 18 mm | 2.215 mm | 36.1% | 32.47% | 55.1% | 47.17% | inactive | 
CC1=NN(C(=O)c2cc3ccccc3oc2=O)C(=O)C1CNc1ccc(O)cc1 (configuration not stated) | 63.9 µM (≈ 25 µg/mL) | 18 mm | 18 mm | 63.9 µM (≈ 25 µg/mL) | 128 µM (≈ 50 µg/mL) | 12 mm | 63.9 µM (≈ 25 µg/mL) | 1.947 mm | Toxic | 18 mm | 2.231 mm | 35.6% | 41.56% | 50.7% | 60.38% |  | 

From ChEMBL document CHEMBL3286206, “Conventional and microwave assisted synthesis of pyrazolone Mannich bases possessing anti-inflammatory, analgesic, ulcerogenic effect and antimicrobial properties” (Bioorg Med Chem Lett, 2014)
